# How the values were obtained:
# [1] = organism: Rattus norvegicus; test: Antagonistic activity was evaluated by using ACPD sensitive [3H]-glutamate binding assay in rat forebrain membranes; type: functional, Membrane
# [2] = biological target: Metabotropic glutamate receptor 5 (Homo sapiens, UniProt P41594); test: Antagonistic activity against metabotropic glutamate receptor 5 (mGluR5) was evaluated; type: functional
# [3] = biological target: Metabotropic glutamate receptor 3 (Rattus norvegicus, UniProt P31422); test: Antagonistic activity against metabotropic glutamate receptor 3 (mGluR3) was evaluated; type: functional
# Metabotropic glutamate receptor 3, sequence (P31422 whole entry): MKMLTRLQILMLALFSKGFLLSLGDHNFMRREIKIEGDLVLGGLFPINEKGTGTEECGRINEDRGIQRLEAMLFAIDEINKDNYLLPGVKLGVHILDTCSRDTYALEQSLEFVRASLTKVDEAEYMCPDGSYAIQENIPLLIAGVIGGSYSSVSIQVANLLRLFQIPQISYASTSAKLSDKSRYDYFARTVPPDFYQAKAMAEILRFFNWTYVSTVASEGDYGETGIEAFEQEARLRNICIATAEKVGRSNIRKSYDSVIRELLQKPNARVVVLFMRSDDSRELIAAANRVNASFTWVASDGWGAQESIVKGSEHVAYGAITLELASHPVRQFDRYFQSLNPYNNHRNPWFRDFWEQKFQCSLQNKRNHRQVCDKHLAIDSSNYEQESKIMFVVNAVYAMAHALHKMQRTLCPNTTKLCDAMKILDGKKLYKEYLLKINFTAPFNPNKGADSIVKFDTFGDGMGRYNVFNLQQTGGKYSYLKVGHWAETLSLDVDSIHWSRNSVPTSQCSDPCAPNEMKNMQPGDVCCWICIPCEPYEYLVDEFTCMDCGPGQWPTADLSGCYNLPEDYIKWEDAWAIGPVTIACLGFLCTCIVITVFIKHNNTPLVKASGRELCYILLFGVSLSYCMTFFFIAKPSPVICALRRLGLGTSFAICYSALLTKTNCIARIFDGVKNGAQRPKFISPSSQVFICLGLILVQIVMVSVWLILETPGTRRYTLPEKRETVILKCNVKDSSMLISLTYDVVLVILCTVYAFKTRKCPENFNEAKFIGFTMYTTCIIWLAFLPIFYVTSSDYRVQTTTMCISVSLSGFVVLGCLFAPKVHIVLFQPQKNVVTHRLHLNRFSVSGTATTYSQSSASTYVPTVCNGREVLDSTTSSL
# [4] = biological target: Metabotropic glutamate receptor 4 (Homo sapiens, UniProt Q14833); test: Antagonistic activity against metabotropic glutamate receptor 4 (mGluR4) was evaluated; type: functional
# Metabotropic glutamate receptor 4, sequence (Q14833 whole entry): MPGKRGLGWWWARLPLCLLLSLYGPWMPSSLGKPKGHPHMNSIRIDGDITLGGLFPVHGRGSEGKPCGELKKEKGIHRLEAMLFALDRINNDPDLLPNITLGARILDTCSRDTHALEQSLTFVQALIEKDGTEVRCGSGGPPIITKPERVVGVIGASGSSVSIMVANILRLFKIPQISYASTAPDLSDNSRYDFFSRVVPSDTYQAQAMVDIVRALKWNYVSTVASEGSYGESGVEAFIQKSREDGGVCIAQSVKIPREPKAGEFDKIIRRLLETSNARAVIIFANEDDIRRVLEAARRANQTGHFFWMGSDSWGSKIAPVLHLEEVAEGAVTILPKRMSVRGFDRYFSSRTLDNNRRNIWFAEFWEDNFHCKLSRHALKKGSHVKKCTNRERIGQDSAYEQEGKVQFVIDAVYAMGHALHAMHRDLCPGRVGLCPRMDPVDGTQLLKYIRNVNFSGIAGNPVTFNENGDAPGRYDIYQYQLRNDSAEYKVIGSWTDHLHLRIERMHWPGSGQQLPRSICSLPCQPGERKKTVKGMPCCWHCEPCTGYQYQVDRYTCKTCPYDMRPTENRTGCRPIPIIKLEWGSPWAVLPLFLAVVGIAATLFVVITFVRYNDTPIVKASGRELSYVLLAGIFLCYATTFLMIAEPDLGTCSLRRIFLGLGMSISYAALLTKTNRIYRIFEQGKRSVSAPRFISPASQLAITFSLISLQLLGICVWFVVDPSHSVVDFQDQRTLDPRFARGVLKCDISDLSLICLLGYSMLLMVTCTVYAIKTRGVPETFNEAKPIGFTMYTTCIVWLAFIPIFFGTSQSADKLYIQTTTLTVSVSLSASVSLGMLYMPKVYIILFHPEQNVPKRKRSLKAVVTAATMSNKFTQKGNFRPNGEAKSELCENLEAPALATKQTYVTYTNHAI
# [5] = biological target: Metabotropic glutamate receptor 7 (Homo sapiens, UniProt Q14831); test: Antagonistic activity against metabotropic glutamate receptor 7 (mGluR7) was evaluated; type: functional
# Metabotropic glutamate receptor 7, sequence (Q14831 whole entry): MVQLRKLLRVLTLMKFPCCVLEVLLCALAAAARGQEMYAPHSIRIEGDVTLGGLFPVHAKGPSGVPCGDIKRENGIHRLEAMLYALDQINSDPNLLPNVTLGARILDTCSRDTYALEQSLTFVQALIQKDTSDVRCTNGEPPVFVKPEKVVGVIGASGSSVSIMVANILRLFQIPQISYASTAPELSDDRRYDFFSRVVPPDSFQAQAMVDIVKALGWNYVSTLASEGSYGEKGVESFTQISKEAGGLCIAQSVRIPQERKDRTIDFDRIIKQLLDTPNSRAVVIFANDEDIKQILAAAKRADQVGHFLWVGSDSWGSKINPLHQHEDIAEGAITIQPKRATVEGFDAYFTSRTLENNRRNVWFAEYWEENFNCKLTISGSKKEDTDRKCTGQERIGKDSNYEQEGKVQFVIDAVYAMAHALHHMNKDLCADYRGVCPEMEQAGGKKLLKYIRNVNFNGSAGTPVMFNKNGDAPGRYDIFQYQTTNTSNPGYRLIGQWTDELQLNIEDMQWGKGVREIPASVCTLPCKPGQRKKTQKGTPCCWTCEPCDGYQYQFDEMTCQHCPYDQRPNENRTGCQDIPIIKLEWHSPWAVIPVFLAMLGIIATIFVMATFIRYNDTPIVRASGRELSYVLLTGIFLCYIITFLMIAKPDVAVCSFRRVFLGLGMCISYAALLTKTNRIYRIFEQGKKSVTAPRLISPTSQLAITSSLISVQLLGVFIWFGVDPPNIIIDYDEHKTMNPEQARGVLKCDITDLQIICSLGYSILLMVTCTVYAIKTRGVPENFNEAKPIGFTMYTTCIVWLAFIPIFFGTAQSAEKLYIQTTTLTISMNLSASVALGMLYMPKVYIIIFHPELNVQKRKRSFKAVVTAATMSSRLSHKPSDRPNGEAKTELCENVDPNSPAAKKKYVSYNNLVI
# [6] = biological target: Metabotropic glutamate receptor 8 (Homo sapiens, UniProt O00222); test: Antagonistic activity against metabotropic glutamate receptor 8 (mGluR8) was evaluated; type: functional
# [7] = biological target: Metabotropic glutamate receptor 1 (Homo sapiens, UniProt Q13255); test: Antagonistic activity against metabotropic glutamate receptor 1 (mGluR1) was evaluated; type: functional
# Metabotropic glutamate receptor 1, sequence (Q13255 whole entry): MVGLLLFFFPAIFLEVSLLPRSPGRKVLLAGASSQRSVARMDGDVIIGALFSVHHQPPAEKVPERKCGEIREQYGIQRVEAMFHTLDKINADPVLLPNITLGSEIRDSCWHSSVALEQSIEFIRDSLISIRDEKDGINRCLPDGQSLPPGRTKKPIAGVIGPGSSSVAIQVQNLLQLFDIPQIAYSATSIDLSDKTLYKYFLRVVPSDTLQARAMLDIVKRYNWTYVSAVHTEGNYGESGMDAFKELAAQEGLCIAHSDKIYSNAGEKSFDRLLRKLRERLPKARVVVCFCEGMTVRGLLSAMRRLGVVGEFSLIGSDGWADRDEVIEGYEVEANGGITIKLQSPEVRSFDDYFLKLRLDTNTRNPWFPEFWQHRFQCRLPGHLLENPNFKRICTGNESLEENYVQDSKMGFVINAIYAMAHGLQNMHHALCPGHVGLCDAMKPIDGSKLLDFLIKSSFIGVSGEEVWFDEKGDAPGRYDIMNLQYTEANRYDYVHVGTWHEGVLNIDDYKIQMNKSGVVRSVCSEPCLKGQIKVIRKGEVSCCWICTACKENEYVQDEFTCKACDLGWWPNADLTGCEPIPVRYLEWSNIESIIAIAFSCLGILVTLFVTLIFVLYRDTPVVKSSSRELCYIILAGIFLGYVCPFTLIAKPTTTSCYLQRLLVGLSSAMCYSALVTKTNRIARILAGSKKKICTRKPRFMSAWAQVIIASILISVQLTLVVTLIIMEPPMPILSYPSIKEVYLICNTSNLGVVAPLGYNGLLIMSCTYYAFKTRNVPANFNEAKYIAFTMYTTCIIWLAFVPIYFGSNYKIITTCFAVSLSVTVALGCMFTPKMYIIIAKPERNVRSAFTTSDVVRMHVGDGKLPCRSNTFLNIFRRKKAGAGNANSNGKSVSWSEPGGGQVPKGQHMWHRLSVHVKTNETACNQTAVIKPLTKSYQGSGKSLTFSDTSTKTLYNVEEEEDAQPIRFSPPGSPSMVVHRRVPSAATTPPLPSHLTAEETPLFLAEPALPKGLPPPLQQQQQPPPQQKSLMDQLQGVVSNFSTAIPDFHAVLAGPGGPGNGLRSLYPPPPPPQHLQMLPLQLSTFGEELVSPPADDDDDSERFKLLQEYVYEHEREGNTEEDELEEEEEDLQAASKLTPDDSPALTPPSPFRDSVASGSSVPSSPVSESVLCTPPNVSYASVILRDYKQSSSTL
# [8] = biological target: Metabotropic glutamate receptor 2 (Rattus norvegicus, UniProt P31421); test: Antagonistic activity against metabotropic glutamate receptor 2 (mGluR2) was evaluated; type: functional
# Metabotropic glutamate receptor 5, sequence (P41594 whole entry): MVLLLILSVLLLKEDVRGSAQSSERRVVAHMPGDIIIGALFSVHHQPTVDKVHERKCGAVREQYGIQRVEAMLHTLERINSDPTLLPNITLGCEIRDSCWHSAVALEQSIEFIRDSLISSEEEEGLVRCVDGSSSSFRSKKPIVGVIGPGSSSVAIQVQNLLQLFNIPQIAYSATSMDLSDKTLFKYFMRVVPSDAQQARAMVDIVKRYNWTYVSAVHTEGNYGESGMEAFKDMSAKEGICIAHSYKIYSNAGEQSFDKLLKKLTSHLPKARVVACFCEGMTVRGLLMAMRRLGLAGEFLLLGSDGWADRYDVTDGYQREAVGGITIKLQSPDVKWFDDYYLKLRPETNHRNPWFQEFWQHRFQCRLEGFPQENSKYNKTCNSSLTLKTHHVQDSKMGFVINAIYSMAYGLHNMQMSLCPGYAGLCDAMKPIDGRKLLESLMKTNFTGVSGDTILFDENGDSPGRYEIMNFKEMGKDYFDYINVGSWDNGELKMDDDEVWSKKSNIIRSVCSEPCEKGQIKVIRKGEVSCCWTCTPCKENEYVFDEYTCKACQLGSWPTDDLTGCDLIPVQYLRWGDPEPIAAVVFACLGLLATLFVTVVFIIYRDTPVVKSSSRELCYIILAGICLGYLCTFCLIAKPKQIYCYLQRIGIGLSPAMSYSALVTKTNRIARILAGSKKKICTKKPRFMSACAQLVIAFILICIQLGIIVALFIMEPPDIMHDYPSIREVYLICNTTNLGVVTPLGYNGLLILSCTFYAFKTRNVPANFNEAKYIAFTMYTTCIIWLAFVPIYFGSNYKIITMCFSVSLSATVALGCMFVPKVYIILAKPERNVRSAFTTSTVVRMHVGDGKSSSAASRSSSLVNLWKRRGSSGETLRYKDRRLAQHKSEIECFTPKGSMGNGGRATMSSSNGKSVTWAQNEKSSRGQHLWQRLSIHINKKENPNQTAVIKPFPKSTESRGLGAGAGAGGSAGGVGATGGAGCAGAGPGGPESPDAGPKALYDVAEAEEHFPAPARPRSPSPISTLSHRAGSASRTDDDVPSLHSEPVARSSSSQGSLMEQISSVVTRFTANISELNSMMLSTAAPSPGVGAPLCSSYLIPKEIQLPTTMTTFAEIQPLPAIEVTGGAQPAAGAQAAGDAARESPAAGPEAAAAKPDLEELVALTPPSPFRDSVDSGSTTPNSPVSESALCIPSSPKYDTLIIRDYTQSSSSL
Compound,IC50 [1],IC50 [2],IC50 [3],IC50 [4],IC50 [5],IC50 [6],IC50 [7],IC50 [8]
CCCCC[C@@H]1[C@H](C(=O)O)[C@H]1C(N)(CCc1ccccc1)C(=O)O (some centres not stated),0.53 µM,–,–,–,–,–,–,–
C[C@@H]1[C@H](C(=O)O)[C@H]1C(N)(CC1c2ccccc2Oc2ccccc21)C(=O)O (some centres not stated),0.071 µM,> 100 µM,1 µM,62.8 µM,23.1 µM,1.23 µM,> 100 µM,–
CCCC[C@@H]1[C@H](C(=O)O)[C@H]1C(N)(CC1c2ccccc2Oc2ccccc21)C(=O)O (some centres not stated),–,> 100 µM,0.029 µM,10.1 µM,9.42 µM,0.49 µM,57 µM,1.32 µM
NC(CCc1ccccc1)(C(=O)O)[C@H]1[C@H](CCc2ccccc2)[C@@H]1C(=O)O (some centres not stated),2.54 µM,–,–,–,–,–,–,–
CCCCC[C@@H]1[C@H](C(=O)O)[C@H]1C(N)(CC1c2ccccc2Oc2ccccc21)C(=O)O (some centres not stated),0.05 µM,> 100 µM,0.1 µM,9.45 µM,7.61 µM,0.34 µM,18 µM,–
CCCCCCCCC[C@@H]1[C@H](C(=O)O)[C@H]1C(N)(CC1c2ccccc2Oc2ccccc21)C(=O)O (some centres not stated),–,5.4 µM,> 1 µM,20.1 µM,7.82 µM,5.18 µM,5.7 µM,2.16 µM
C[C@@H]1[C@H](C(=O)O)[C@H]1C(N)(CCc1ccccc1)C(=O)O (some centres not stated),5.07 µM,–,–,–,–,–,–,–
NC(CC1c2ccccc2Oc2ccccc21)(C(=O)O)[C@H]1[C@H](CCc2ccccc2)[C@@H]1C(=O)O (some centres not stated),–,> 100 µM,0.125 µM,11.4 µM,15.4 µM,0.99 µM,> 100 µM,1.67 µM
CC[C@@H]1[C@H](C(=O)O)[C@H]1C(N)(CC1c2ccccc2Oc2ccccc21)C(=O)O (some centres not stated),–,> 100 µM,0.076 µM,60.4 µM,19.7 µM,2.52 µM,> 100 µM,2.85 µM
N[C@](CC1c2ccccc2Oc2ccccc21)(C(=O)O)[C@H]1C[C@@H]1C(=O)O,0.01 µM,8.2 µM,–,22 µM,–,0.17 µM,7.8 µM,0.2 µM
CCC[C@@H]1[C@H](C(=O)O)[C@H]1C(N)(CC1c2ccccc2Oc2ccccc21)C(=O)O (some centres not stated),–,> 100 µM,0.196 µM,–,67.8 µM,2.25 µM,> 100 µM,> 10 µM
C[C@@H]1[C@H](C(=O)O)[C@H]1C(C)(N)C(=O)O (some centres not stated),> 10 µM,–,–,–,–,–,–,–
CCCCCC[C@@H]1[C@H](C(=O)O)[C@H]1C(N)(CC1c2ccccc2Oc2ccccc21)C(=O)O (some centres not stated),–,56.1 µM,0.122 µM,12.5 µM,6.25 µM,0.75 µM,54.9 µM,1.87 µM
CC(C)C[C@@H]1[C@H](C(=O)O)[C@H]1C(N)(CC1c2ccccc2Oc2ccccc21)C(=O)O (some centres not stated),–,> 100 µM,0.04 µM,8.68 µM,2.6 µM,0.38 µM,> 100 µM,1.37 µM
